Data on 5 molecules can be found in patent US9573953B2, “Heteroaromatic compounds as PI3 kinase modulators and methods of use” (CALITOR SCIENCES, LLC, priority 2013, dated 2017).

Like-named read-outs stand apart in the source and are kept apart here.

Data set [1] is described as follows: Compound stability in human liver microsomes. It counts as in vitro ADME. The following applies: for half-life at 5 μM / CLint scaled at 5 μM: pH 7.4; for CLint scaled at 5 μM: human liver microsomes, in vivo CLint extrapolated. The protocol: (§1) Human or rat liver microsomes incubations were conducted in duplicate in polypropylene tubes. The typical incubation mixtures consisted of human or rat liver microsomes (0.5 mg protein/mL), compounds of interest (5 μM) and NADPH (1.0 mM) in a total volume of 200 μL potassium phosphate buffer (PBS, 100 mM, pH=7.4). Compounds were dissolved in DMSO and diluted with PBS such that the final concentration of DMSO was 0.05%. The enzymatic reactions were commenced with the addition of protein after a 3-min preincubation and incubated in a water bath open to the air at 37° C. Reactions were terminated at various time points (0, 5, 10, 15, 30, 60 min) by adding equal volume of ice-cold acetonitrile. The samples were stored at −80° C. until LC/MS/MS assays.
(§2) The concentrations of compounds in the incubation mixtures of human or rat liver microsomes were determined by a LC/MS/MS method. The ranges of the linearity in the concentration range were determined for each tested compounds.
(§3) A parallel incubation was performed using denatured microsomes as the negative control, and reactions were terminated at various time points (0, 15, 60 min) after incubation at 37° C.
(§4) Dextromethorphan (70 μM) was selected as the positive control, and reactions were terminated at various time points (0, 5, 10, 15, 30, 60 min) after incubation at 37° C. Both positive and negative control samples were included in each assay to ensure the integrity of the microsomal incubation system.
(§5) The concentrations of compounds in human or rat liver microsome incubations were plotted as a percentage of the relevant zero time point control for each reaction. The in vivo CLint were extrapolated (ref.: Naritomi Y, Terashita S, Kimura S, Suzuki A, Kagayama A, Sugiyama Y. “Prediction of human hepatic clearance from in vivo animal experiments and in vitro metabolic studies with liver microsomes from animals and humans”, Drug Metabolism and Disposition, 2001, 29, 1316-1324).

A short description of data set [2]: Compound stability in rat liver microsomes. The data set is classed as in vitro ADME. The following applies: for half-life at 5 μM / CLint scaled at 5 μM: pH 7.4; for half-life at 5 μM / T1/2: rat liver microsomes 0.5 mg protein/mL, compound 5 μM, NADPH, 37° C.; for CLint scaled at 5 μM: rat liver microsomes, in vivo CLint extrapolated. The procedure:
as §1, §2, §3, §4, §5

Data set [3] is described as follows: Pharmacokinetic profiles in rats. The following applies: for F: oral dose generally 5 or 10 mg/kg; for Cl/F / AUC(0-t) / half-life / Vd: iv dosing; for AUC(0-t) / half-life / Vd: rat, plasma; for Vd: read-out: Vss. It counts as in vivo. The protocol:
The compounds disclosed herein are assessed in pharmacokinetic studies in mice, rats, dogs or monkeys. The compounds are administered as a water solution, 2% HPMC+1% TWEEN®80 in water solution, 5% DMSO+5% solutol in saline, 4% MC suspension or capsule. For the intravenous administration, the animals are generally given at 1 or 2 mg/kg dose. For the oral (p.o.) dosing, mice and rats are generally given 5 or 10 mg/kg dose, and dogs and monkeys are generally given 10 mg/kg dose. The blood samples (0.3 mL) are drawn at 0.25, 0.5, 1.0, 2.0, 3.0, 4.0, 6.0, 8.0, 12 and 24 h time points or 0.083, 0.25, 0.5, 1.0, 2.0, 4.0, 6.0, 8.0 and 24 h time points and centrifuged at 3,000 or 4000 rpm for 2 to 10 min. The plasma solutions are collected and stored at −20° C. or −70° C. until analyzed by LC/MS/MS as described above.

Another data set has as its target T1, mTOR (h) (Homo sapiens, UniProt P42345).
T1 construct: purchased Millipore UK Ltd (assays run there as a service)
The data set can be described thus: mTOR (h) kinase assay. The data set is classed as biochemical. The protocol:
mTOR (h) is incubated with 50 mM HEPES pH 7.5, 1 mM EDTA, 0.01% TWEEN®20, 2 mg/mL substrate, 3 mM Manganese Chloride and [γ-^33P-ATP] (specific activity approx. 500 cpm/pmol, concentration as required). The reaction is initiated by the addition of the MnATP mix. After incubation for 40 minutes at room temperature, the reaction is stopped by the addition of 3% phosphoric acid solution. Aliquote of the reaction (10 μL) is then spotted onto a P30 filtermat and washed three times for 5 minutes in 75 mM phosphoric acid and once in methanol prior to drying and scintillation counting.
(§6) The kinase assays described herein were performed at Millipore UK Ltd, Dundee Technology Park, Dundee DD2 1SW, UK.

For the next data set, the target named is T2, PI3K p110α/p85α (h) (Homo sapiens, UniProt P42336).
T2 construct: purchased Millipore UK Ltd (assays run there as a service)
T2 sequence (P42336 whole entry): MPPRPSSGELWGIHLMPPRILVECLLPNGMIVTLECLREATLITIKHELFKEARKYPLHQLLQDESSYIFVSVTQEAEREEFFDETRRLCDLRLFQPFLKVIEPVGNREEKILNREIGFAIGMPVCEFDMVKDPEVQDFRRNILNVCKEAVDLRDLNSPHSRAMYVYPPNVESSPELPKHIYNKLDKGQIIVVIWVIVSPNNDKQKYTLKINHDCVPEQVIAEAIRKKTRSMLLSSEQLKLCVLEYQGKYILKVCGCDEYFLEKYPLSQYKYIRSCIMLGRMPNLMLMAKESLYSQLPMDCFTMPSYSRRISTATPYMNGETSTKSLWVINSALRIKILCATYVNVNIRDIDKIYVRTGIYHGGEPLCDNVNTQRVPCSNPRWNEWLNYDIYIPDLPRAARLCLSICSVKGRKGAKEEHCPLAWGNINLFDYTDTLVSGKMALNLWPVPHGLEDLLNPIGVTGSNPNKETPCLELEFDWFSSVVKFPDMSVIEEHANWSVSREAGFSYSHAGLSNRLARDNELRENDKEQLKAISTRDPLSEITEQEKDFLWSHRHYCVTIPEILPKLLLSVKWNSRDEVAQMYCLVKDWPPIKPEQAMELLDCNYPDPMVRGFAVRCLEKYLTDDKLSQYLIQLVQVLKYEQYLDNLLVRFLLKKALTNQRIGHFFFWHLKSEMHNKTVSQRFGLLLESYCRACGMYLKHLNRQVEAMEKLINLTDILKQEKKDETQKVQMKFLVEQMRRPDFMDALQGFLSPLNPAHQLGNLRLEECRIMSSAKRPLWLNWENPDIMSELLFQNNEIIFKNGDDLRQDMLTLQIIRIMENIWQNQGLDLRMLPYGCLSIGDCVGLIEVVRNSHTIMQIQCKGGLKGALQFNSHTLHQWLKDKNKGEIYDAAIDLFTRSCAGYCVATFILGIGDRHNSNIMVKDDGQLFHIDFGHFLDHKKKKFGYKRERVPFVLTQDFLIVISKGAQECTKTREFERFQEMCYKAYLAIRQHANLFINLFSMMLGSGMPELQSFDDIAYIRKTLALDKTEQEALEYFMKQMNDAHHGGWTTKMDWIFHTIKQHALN
T2 sequence (P27986 whole entry partner): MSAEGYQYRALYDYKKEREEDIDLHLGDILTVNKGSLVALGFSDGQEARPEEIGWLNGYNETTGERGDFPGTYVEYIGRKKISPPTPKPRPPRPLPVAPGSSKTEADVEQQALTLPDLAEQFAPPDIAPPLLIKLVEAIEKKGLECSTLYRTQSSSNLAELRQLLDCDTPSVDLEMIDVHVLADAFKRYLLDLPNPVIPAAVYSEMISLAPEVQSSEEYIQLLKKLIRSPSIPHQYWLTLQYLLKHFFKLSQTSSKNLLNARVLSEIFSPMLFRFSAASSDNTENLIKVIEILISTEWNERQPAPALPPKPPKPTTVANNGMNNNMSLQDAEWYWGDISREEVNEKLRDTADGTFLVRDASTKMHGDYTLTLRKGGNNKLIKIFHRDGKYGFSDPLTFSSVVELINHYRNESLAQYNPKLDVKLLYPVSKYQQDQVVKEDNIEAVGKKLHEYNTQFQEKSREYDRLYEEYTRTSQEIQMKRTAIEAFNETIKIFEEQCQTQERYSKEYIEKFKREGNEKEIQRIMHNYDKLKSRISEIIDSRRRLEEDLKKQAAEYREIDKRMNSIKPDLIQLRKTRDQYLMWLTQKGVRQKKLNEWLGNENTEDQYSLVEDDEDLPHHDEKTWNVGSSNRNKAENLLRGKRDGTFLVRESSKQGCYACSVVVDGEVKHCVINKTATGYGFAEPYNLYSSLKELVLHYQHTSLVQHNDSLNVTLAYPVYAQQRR
Briefly: PI3K p110α/p85α (h) non-radioactive (HTRF) assay. It counts as biochemical. The protocol: PI3K p110α/p85α (h) [Non-Radioactive Assay]
(§7) PI3K p110α/p85α (h) is incubated in assay buffer containing 10 μM phosphatidylinositol 4,5-bisphosphate and MgATP (concentration as required). The reaction is initiated by the addition of the ATP solution. After incubation for 30 minutes at room temperature, the reaction is stopped by the addition of stop solution containing EDTA and biotinylated phosphatidylinositol-3,4,5-trisphosphate. Finally, detection buffer is added, which contains europium-labelled anti-GST monoclonal antibody, GST-tagged GRP1 PH domain and streptavidin allophycocyanin. The plate is then read in time-resolved fluorescence mode and the homogenous time-resolved fluorescence (HTRF) signal is determined according to the formula HTRF=10000×(Em665 nm/Em620 nm).
as §6

The target in the next data set is T3, PI3K p110β/p85α (h) (Homo sapiens, UniProt P42338).
T3 construct: purchased Millipore UK Ltd (assays run there as a service)
T3 sequence (P42338 whole entry): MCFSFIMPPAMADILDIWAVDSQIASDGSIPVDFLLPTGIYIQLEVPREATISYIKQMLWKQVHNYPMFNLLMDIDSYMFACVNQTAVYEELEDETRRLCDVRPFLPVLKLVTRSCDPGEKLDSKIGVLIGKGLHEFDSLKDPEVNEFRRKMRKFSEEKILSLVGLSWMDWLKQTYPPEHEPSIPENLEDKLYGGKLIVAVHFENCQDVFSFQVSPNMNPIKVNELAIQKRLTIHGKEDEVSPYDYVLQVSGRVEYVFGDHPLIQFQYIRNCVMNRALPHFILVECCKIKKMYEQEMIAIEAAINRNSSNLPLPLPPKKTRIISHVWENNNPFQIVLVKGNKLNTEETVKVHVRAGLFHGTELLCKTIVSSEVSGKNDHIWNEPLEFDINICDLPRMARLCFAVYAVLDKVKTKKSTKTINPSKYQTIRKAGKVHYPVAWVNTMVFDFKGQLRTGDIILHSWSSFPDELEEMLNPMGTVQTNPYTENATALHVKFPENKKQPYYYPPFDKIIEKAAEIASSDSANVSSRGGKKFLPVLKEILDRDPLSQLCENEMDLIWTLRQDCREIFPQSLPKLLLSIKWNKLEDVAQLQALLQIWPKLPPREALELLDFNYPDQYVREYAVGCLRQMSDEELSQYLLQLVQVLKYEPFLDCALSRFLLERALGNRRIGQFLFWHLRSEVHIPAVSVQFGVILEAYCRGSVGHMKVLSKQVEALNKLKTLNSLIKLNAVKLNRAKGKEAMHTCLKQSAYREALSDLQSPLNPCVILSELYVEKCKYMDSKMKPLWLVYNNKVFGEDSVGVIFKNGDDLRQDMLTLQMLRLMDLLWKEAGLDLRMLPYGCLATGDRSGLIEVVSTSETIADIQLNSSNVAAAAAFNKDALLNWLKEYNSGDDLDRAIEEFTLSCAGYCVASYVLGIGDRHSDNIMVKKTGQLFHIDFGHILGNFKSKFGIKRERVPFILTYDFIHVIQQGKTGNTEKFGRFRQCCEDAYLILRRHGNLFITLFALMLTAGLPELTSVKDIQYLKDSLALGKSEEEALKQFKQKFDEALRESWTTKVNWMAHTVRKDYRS
T3 sequence (P27986 whole entry partner): as the sequence (P27986 whole entry partner) above
The data set can be described thus: PI3K p110β/p85α (h) non-radioactive (HTRF) assay. It counts as biochemical. The protocol:
PI3K p110β/p85α (h) [Non-Radioactive Assay]
as §7, with “(p110β/p85α)” for “p110α/p85α”, “phosphatidylinositol-4,5-bisphosphate” for “phosphatidylinositol 4,5-bisphosphate”, “MgATP mix.” for “ATP solution.”, “streptavidin-allophycocyanin.” for “streptavidin allophycocyanin.”
as §6

The next data set concerns the target T4, PI3K (p110δ/p85α) (h) (Homo sapiens, UniProt O00329).
T4 construct: purchased Millipore UK Ltd (assays run there as a service)
Briefly: PI3K (p110δ/p85α) (h) non-radioactive (HTRF) assay. The data set is classed as biochemical. The procedure: PI3K (p110δ/p85α) (h) [Non-Radioactive Assay]
as §7, with “(p110δ/p85α)” for “p110α/p85α”, “phosphatidylinositol-4,5-bisphosphate” for “phosphatidylinositol 4,5-bisphosphate”, “MgATP mix.” for “ATP solution.”, “streptavidin-allophycocyanin.” for “streptavidin allophycocyanin.”
as §6

A further data set addresses T5, PI3K (p120γ) (h) (Homo sapiens, UniProt P48736).
T5 construct: purchased Millipore UK Ltd (assays run there as a service)
The data set can be described thus: PI3K (p120γ) (h) non-radioactive (HTRF) assay. The data set is classed as biochemical. The protocol:
PI3K (p120γ) (h) [Non-Radioactive Assay]
as §7, with “(p120γ)” for “p110α/p85α”, “phosphatidylinositol-4,5-bisphosphate” for “phosphatidylinositol 4,5-bisphosphate”, “MgATP mix.” for “ATP solution.”, “streptavidin-allophycocyanin.” for “streptavidin allophycocyanin.”
as §6

Where [4] appears, read: human liver microsomes 0.5 mg protein/mL, compound 5 μM, NADPH, 37° C.

T4 sequence (O00329 whole entry): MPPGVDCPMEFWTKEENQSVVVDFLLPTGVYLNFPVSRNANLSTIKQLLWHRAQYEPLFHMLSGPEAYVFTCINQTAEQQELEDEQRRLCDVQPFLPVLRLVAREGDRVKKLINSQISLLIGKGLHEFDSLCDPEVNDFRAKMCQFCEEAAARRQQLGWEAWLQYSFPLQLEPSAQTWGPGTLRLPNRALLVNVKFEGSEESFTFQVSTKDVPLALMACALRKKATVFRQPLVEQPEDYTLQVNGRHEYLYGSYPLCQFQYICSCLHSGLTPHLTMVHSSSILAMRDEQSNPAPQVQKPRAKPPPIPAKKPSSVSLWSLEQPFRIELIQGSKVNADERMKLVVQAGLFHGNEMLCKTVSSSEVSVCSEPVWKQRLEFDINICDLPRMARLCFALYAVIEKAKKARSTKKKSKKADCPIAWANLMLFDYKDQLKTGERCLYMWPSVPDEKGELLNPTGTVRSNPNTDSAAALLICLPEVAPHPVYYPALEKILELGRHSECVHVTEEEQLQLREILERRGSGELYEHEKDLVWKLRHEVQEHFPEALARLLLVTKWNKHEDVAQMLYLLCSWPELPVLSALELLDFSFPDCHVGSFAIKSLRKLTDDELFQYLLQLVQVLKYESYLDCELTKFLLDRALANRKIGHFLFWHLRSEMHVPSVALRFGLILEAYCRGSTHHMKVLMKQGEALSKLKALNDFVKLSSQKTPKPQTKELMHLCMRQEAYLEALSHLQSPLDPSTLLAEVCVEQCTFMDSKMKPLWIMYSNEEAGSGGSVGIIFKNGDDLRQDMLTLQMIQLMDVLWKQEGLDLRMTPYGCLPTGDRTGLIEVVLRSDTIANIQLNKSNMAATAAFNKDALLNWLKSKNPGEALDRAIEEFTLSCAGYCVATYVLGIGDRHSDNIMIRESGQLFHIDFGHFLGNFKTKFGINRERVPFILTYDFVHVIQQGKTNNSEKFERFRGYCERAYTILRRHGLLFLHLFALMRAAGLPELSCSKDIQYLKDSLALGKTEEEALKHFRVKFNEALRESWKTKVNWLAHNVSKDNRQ
T4 sequence (P27986 whole entry partner): as the sequence (P27986 whole entry partner) above
T5 sequence (P48736 whole entry): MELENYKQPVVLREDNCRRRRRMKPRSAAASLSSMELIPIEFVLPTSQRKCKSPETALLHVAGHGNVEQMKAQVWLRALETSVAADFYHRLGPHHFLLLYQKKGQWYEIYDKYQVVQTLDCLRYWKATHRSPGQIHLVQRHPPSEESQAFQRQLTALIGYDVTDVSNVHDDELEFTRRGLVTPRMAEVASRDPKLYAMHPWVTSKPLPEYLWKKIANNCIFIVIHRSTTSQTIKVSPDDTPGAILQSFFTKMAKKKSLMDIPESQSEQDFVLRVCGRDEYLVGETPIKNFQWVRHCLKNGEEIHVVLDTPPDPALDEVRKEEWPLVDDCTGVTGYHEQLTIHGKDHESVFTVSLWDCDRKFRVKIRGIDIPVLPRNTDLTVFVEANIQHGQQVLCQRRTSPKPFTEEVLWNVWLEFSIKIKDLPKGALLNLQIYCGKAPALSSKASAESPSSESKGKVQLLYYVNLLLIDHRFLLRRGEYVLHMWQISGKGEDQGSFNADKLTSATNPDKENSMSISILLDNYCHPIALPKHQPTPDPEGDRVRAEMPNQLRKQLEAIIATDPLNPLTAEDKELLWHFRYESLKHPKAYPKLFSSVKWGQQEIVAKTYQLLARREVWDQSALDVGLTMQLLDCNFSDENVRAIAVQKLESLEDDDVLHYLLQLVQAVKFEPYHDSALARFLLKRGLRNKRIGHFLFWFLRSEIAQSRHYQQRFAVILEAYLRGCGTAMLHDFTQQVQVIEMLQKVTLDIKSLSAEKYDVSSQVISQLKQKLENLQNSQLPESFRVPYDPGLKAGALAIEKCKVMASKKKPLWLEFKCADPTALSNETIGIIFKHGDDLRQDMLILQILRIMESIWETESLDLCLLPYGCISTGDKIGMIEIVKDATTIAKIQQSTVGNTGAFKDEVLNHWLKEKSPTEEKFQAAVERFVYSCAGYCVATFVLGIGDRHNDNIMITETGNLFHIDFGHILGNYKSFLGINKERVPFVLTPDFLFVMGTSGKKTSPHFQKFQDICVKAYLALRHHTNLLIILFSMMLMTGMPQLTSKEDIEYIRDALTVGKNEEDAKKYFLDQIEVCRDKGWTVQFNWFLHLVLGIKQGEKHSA

On to `COc1ncc(-c2ccn3ncc(C#CC(C)O)c3n2)cc1NS(=O)(=O)c1ccc(F)cc1F` (centres unmarked) [Ex. 5, 2,4-difluoro-N-(5-(3-(3-hydroxybut-1-yn-1-yl)pyrazolo[1,5-a]pyrimidin-5-yl)-2-methoxypyridin-3-yl)benzenesulfonamide], for which the figures for the half-life at 5 μM in data set [1] (setting [4]) and in data set [2] were 5.05 h and 3.61 h, respectively. Further, the CLint scaled at 5 μM was 5.74 mL/min/kg in data set [1] and 11.5 mL/min/kg in data set [2]. In data set [3] (iv dose 2 mg/kg), the F is on record as 96.20%. For the same molecule, the Cl/F in data set [3] (2 mg/kg) was 0.83 mL/min/kg. The molecule also came in with an AUC(0-t) in data set [3] (2 mg/kg) of 35200 ng·h/mL. In data set [3] (2 mg/kg), this molecule showed a half-life of 3 h. Also, the Vd in data set [3] (2 mg/kg) is 0.2 L/kg. The half-inhibitory concentration (IC50) against mTOR (h) stood at 7 nM; at PI3K p110α/p85α (h), 3 nM; on PI3K p110β/p85α (h), 75 nM; on PI3K (p110δ/p85α) (h), 1 nM; on PI3K (p120γ) (h), 6 nM.

With `COc1ncc(-c2ccn3ncc(C#CC(C)(C)O)c3n2)cc1NS(=O)(=O)c1ccc(F)cc1F` [Ex. 6, 2,4-difluoro-N-(5-(3-(3-hydroxy-3-methylbut-1-yn-1-yl)pyrazolo[1,5-a]pyrimidin-5-yl)-2-methoxypyridin-3-yl)benzenesulfonamide], the T1/2 entry in data set [1] (setting [4]) is “∞”. Besides, in data set [2], the T1/2 result is “∞”. For the same molecule, the F in data set [3] (iv dose 1 mg/kg) is on record as 50.80%. Also, in data set [3] (1 mg/kg), the Cl/F came out at 0.33 mL/min/kg, the AUC(0-t) amounted to 40900 ng·h/mL, the half-life was 11 h and the Vd stood at 0.24 L/kg.

`CC#Cc1cnn2ccc(-c3cnc(OC)c(NS(=O)(=O)c4ccc(F)cc4F)c3)nc12` [Ex. 7, 2,4-difluoro-N-(2-methoxy-5-(3-(prop-1-yn-1-yl)pyrazolo[1,5-a]pyrimidin-5-yl)pyridin-3-yl)benzenesulfonamide] had a half-life at 5 μM in data set [1] (setting [4]) of 55.7 h. Further, the CLint scaled at 5 μM in data set [1] is 0.52 mL/min/kg. Further, in data set [2], the half-life at 5 μM is 1.54 h and the CLint scaled at 5 μM is 26.9 mL/min/kg. Moreover, the F in data set [3] (iv dose 1 mg/kg) is given as 80.10%. Besides, in data set [3] (1 mg/kg), the Cl/F turned out to be 3.17 mL/min/kg, the area under the curve AUC(0-t) amounted to 5330 ng·h/mL, the half-life was 3.94 h and the Vd came out at 0.63 L/kg.

For the molecule `COc1ncc(-c2ccn3ncc(C#CC(C)(C)O)c3c2)cc1NS(=O)(=O)c1ccc(F)cc1F` [Ex. 8, 2,4-difluoro-N-(5-(3-(3-hydroxy-3-methylbut-1-yn-1-yl)pyrazolo[1,5-a]pyridin-5-yl)-2-methoxypyridin-3-yl)benzenesulfonamide], in data set [1] (setting [4]), the half-life at 5 μM stood at 130 h. In addition, the CLint scaled at 5 μM in data set [1] was 0.22 mL/min/kg. Further, in data set [2], the half-life at 5 μM was found to be 21 h and the intrinsic clearance (CLint scaled) at 5 μM is 1.97 mL/min/kg. This molecule also registered a F in data set [3] (iv dose 1 mg/kg) of 103.40%. In data set [3] (1 mg/kg), the Cl/F was 0.33 mL/min/kg, the AUC(0-t) was determined as 41800 ng·h/mL, the half-life was 10.8 h and the Vd came out at 0.28 L/kg.

In data set [1] (setting [4]), `COc1ncc(-c2ccn3ncc(C#N)c3c2)cc1NS(=O)(=O)CC(F)(F)F` [Ex. 10, N-(5-(3-cyanopyrazolo[1,5-a]pyridin-5-yl)-2-methoxypyridin-3-yl)-2,2,2-trifluoroethanesulfonamide] registered a half-life at 5 μM of 20.4 h. In addition, the CLint scaled at 5 μM in data set [1] was 2.03 mL/min/kg. In addition, the T1/2 result in data set [2] is “∞”. In addition, the F in data set [3] (iv dose 1 mg/kg) is recorded as 112.95%. In data set [3] (1 mg/kg), the Cl/F amounted to 12.7 mL/min/kg, the area under the curve AUC(0-t) amounted to 1240 ng·h/mL, the half-life was 2.74 h and the Vd came to 1.72 L/kg.
